Each structure is given as a SMILES string. Where “and” joins values, the source holds several entries; their conditions need not be identical. Identical values can stand only once. Results filed as inconclusive are left out. Calls of active or inactive are those of the source. No rule for the calls is given here.

The test relates to C. albicans CaCi-8 + fluconazole, Alamar Blue growth, 48 h. Kind of test: resistant C. albicans growth inhibition with fluconazole, dose response, CaCi-8 strain, Alamar Blue fluorescence (AID 2423).
Regarding `O=C(Nc1nnc(-c2ccco2)o1)c1ccc(Cl)cc1`, the concentration for a half-maximal effect (EC50) is 1160 nM.
Then `Cc1cc(NCCCn2ccnc2)n2ncc(-c3ccc(Cl)cc3)c2n1`, with 1310 nM.
Then `O=C(Nc1ccccc1O)c1ccccc1O`, with 784 nM; and `CC(C)CC(=O)NC(c1cccs1)c1ccc2cccnc2c1O` (centres undefined), with 867 nM; and `CCCC(=O)NC(c1ccc(C(C)C)cc1)c1ccc2cccnc2c1O` (centres undefined), with 659 nM.
Then `Cc1ccc(C2C3=C(CC(C)(C)CC3=O)N=C3c4ccccc4C(=O)C32)cc1` (centres undefined), with 769 nM.
Regarding `Cc1nn2c([nH]c(=O)c3ccccc32)c1C=O`, the EC50 was 961 nM.
Take `COc1cc2c(O)c3c(c(-c4ccc5c(c4)OCO5)c2cc1OC)C(=O)OC3`: the half-maximal effective concentration (EC50) was 2210 nM.
Then `Cc1cc(C)cc(OCC(=O)NNC(=S)NC(=O)C2CC2)c1`, with 646 nM.
Then `C/C(=C\C(=O)OCCCCCCCCC(=O)O)C[C@@H]1OC[C@H](C[C@@H]2O[C@H]2[C@@H](C)[C@H](C)O)[C@@H](O)[C@H]1O`, with > 15000 nM (inactive).
Then `Cc1ccc2nsnc2c1NC(=O)COc1ccccc1F`, with > 15000 nM (inactive); and `O=C(NCc1ccco1)c1sc(=S)n2c1[nH]c(=O)c1ccccc12`, with 212 nM; and `O=C(C[n+]1ccccc1)N/N=C/c1cccs1`, with > 15000 nM (inactive).
Take `CCN=c1scc(-c2ccc3c(c2)NC(=O)CO3)n1N=C1CCCC1`: the concentration giving a half-maximal response (EC50) is 7220 nM.
Then `CCCOc1cccc(C(=O)Nc2cccnc2)c1`, with 2200 nM.
Then `Cc1cc([N+](=O)[O-])ccc1-c1ccc(C2Nc3ccccc3C(=O)N2O)o1` (centres undefined), with 2440 nM; and `CCOC(=O)c1ccc(NC(=O)Cn2ncc(Cl)c(Cl)c2=O)cc1`, with 894 nM; and `O=C(O)CCCCCN1C(=O)/C(=C\c2ccncc2)SC1=S`, with 898 nM.
Then `O=C(Oc1c(CN2CCOCC2)cc(Cl)c2cccnc12)c1ccc(F)cc1`, with 3110 nM; and `CC1CCN(Cc2c(C(=O)N/N=C/c3cc(Cl)ccc3O)nnn2-c2nonc2N)CC1`, with 693 nM.
Turning to `CC[n+]1c(C=C2C=C(C)OC(C)=C2)sc2ccccc21`, the EC50 was 2080 nM.
Then `CCN(CC)c1nc(-c2ccccn2)nc(-c2ccccc2)c1C#N`, with 4190 nM.
Then `O=C(CCC(=O)Nc1ccccc1Cl)NNS(=O)(=O)c1ccc(Cl)cc1`, with > 16000 nM (inactive).
As for `COc1ccc(OC)c(/C=C2\SC(=S)N(NS(=O)(=O)c3ccc(C)cc3)C2=O)c1`, the EC50 is 1130 nM.
Take `O=C(Oc1c(CN2CCOCC2)cc(Cl)c2cccnc12)c1ccccc1Cl`: the 50% effective concentration (EC50) is 2420 nM.
Then `O=C1/C(=C/c2cccnc2)CCc2c1[nH]c1ccccc21`, with 1240 nM; and `BrC(=C\c1ccccc1)/C=N/n1cnnc1`, with 1570 nM; and `O=C(Oc1c(CN2CCOCC2)cc(Cl)c2cccnc12)c1cccs1`, with 3400 nM.
Then `CN(C)CCCNC(=O)c1ccc(-c2nc(-c3ccc(Cl)cc3)cs2)cc1`, with 2610 nM; and `Nc1nn2cc(-c3ccc(Br)cc3)nc2c2ccccc12`, with 962 nM.
Then `COc1ccc(-c2cc(C(=O)NNC(=S)NC(=O)c3c(-c4ccccc4)noc3C)[nH]n2)cc1`, with 2460 nM.
With `CC[n+]1cc(C)ccc1/C=C/c1ccc(N(C)C)cc1`, the concentration giving a half-maximal response (EC50) is 1410 nM.
Then `CN1CCc2cc3c(c4c2[C@H]1[C@H](O)c1ccccc1-4)OCO3`, with 8200 nM; and `O=C(CSc1nc(-c2ccccc2)cs1)Nc1nccs1`, with > 16000 nM (inactive).
Then `O=C(Nc1ccc(NC(=O)c2cccs2)cc1)c1ccc(Br)o1`, with 9960 nM; and `CC1(C)CC(=O)C2=C(C1)c1c(ccc3ccccc13)NC2c1cc([N+](=O)[O-])cc([N+](=O)[O-])c1O` (centres undefined), with > 15000 nM (inactive).
Then `C[N+]1(CC(=O)OC2CCCCCCCCCCC2)CCCC1`, with 4940 nM; and `O=C(Nc1nc2ccc(SC(F)F)cc2s1)c1ccc(NS(=O)(=O)c2ccc(F)c(F)c2)cc1`, with 1640 nM; and `Oc1c(C(Nc2nc3ccccc3s2)c2ccco2)ccc2cccnc12` (centres undefined), with 1980 nM.
In the case of `c1ccc(-c2cccc(-c3ccccn3)n2)nc1`, the half-maximal effective concentration (EC50) was 521 nM.
Then `c1ccc(CC2CCN(C3=Nc4cccc5cccc3c45)CC2)cc1`, with 4400 nM; and `O=C(NC(Nc1nc2ccc([N+](=O)[O-])cc2s1)(C(F)(F)F)C(F)(F)F)c1ccccc1Cl`, with 1040 nM; and `CNC(=S)/N=C/NOCc1ccc(Cl)cc1Cl`, with 460 nM.
Then `Cc1nc(-n2[nH]c3c(c2=O)CCCC3)[nH]c(=O)c1Cc1ccccc1`, with 541 nM.
Then `O=C(Nc1cccc(Cl)c1)Nc1nccs1`, with 146 nM; and `Cc1ccc(/C=N/NC(=O)C2=NNC(c3ccccc3)(c3ccccc3)C2)c(O)c1`, with > 16000 nM (inactive); and `Cc1ccc(/C=C/C(=O)c2ccccc(=O)c2O)cc1C`, with 2720 nM.
`O=C(Cc1ccc([N+](=O)[O-])cc1)NNC(=O)c1ccc2c(c1)OCO2`: the EC50 was > 15000 nM (inactive).
In the case of `S=C(Nc1ccccc1)Nc1nc2ccccc2n1CCOc1ccc(Cl)cc1`, the EC50 is 962 nM.
Then `Cc1cc(Cl)ccc1OCc1cn2cccnc2n1`, with 5340 nM; and `NC(N)=N/N=C/c1ccc(N(c2ccccc2)c2ccccc2)cc1`, with > 15000 nM (inactive); and `CCN1/C(=C/c2ccc3cc(C)ccc3[n+]2CC)Sc2ccc3sccc3c21`, with under 120 nM.
Then `CCC(=O)NC(c1ccccc1OC)c1ccc2cccnc2c1O` (centres undefined), with 999 nM; and `N#Cc1ccc(-c2nc3cc(Cl)ccc3c(=O)n2O)cc1`, with 3570 nM.
Then `Cc1c2ccccc2nc2c(F)c(NCCO)c(F)c(F)c12`, with > 16000 nM (inactive).
For `Cc1cccc(Cc2nnc(CCC(=O)N3CCCCC3c3nccs3)o2)c1` (centres undefined), the EC50 was > 16000 nM (inactive).
Then `O=C(NCc1ccc(Cl)cc1)c1n[nH]c([N+](=O)[O-])c1Cl`, with > 16000 nM (inactive); and `CCn1c(=O)c(C(=O)Nc2ncccc2C)c(O)c2ccccc21`, with 3360 nM; and `CCOc1cc(/C=C2\SC(=S)N(NS(=O)(=O)c3ccccc3)C2=O)ccc1O`, with 2020 nM.
Turning to `NC(=O)c1c(NC(=O)c2ccco2)sc2c1CCC2`, the EC50 was 1060 nM.
Then `Nc1nsc2ccccc12`, with > 15000 nM (inactive).
Then `Cc1nn(-c2ccccc2)c(N)c1N=Nc1ccc(Cl)cc1`, with 7760 nM.
With `CCn1c(NN=O)nc2ccccc21`, the 50% effective concentration (EC50) is 7380 nM.
Then `Cn1c(N/N=C/c2c[nH]c3ccccc23)nc2ccccc21`, with 6030 nM; and `COc1ccc(-n2nc(C(=O)NCC(=O)NCCC3=CCCCC3)c3ccccc3c2=O)c(OC)c1`, with 232 nM.
Then `CC(=O)Nc1cccc(NC(=O)Nc2cccc(F)c2)c1`, with > 15000 nM (inactive).
Then `O=c1c2ccccc2nc(N/N=C/c2c(O)ccc3ccccc23)n1O`, with 238 nM; and `O=[N+]([O-])CC(c1ccccc1)P(=O)(c1ccccc1)c1ccccc1` (centres undefined), with 1890 nM; and `CCn1c(=S)[nH]c2scc(-c3cccs3)c2c1=O`, with > 16000 nM (inactive).
In the case of `Cc1ccc(/C=N/NC(=O)c2c(-c3ccccc3)noc2C)c(O)c1`, the EC50 was 6160 nM.
Then `CC(CC(=O)Nc1ncc([N+](=O)[O-])s1)c1ccccc1` (centres undefined), with 322 nM.
With `C/C(=N\NC(=O)CSCc1ccccc1Cl)c1cc(O)ccc1O`, the EC50 is > 16000 nM (inactive).
In the case of `CCCCC(=O)NC(c1ccco1)c1cc(Cl)c2cccnc2c1O` (centres undefined), the EC50 is 625 nM.
Then `CC(=O)c1sc(NC(=O)CCS(=O)(=O)c2ccccc2)nc1C`, with 368 nM; and `CCn1c(=O)n(CC(=O)N2CCN(c3ccccc3F)CC2)c(=O)c2ccccc21`, with > 16000 nM (inactive).
Then `Cc1ccc(S(=O)(=O)CC2CSc3nc4ccccc4n32)cc1` (centres undefined), with 2520 nM.
Then `CN(C)S(=O)(=O)Oc1cccc(C(=O)Nc2ccc(Cl)cc2)c1`, with 2970 nM; and `CCOC(=O)C1CCN(C(=O)c2ccc3c(=O)n4nc(Nc5cc(C)ccc5C)sc4nc3c2)CC1`, with 400 nM.
For `O=C(CCl)N(c1ccc(Cl)cc1)c1c[nH]c2ccccc12`, the concentration giving a half-maximal response (EC50) is 6410 nM.
Then `C[C@H]1CCC/C=C/C2C[C@H](O)CC2[C@H](O)/C=C/C(=O)O1` (some centres undefined), with 2060 nM; and `COC(=O)c1c(C)n(-c2ccccc2)c2ccc(O)cc12`, with 3160 nM.
Then `Cc1ccc(C(=O)CC(=O)c2ccc(C(C)(C)C)cc2)cc1`, with 6220 nM.
Then `COc1cccc(-c2nc(NC(C)C)c3ccccc3n2)c1O`, with 3200 nM.
For `O=C(Nc1nnc(-c2ccc3c(c2)CCCC3)o1)c1ccccc1`, the EC50 was 484 nM.
Then `O=C(Nc1cccc(-c2nc3ccccc3s2)c1)c1cc(-n2cnnc2)ccc1Cl`, with 1510 nM; and `CNC(=O)COC(=O)c1c2c(nc3ccccc13)CCC2`, with > 16000 nM (inactive).
Regarding `Oc1cccc2ccc(Nc3ccccn3)nc12`, the concentration for a half-maximal effect (EC50) is 2350 nM.
As for `COc1ccc(-[n+]2c(-c3ccccc3)cc(-c3ccc(C)cc3)cc2-c2ccccc2)cc1`, the EC50 is > 15000 nM (inactive).
Then `COc1cccc(-n2c(SCc3cc(=O)oc4cc(O)c(O)cc34)nc3ccccc3c2=O)c1`, with 5670 nM.
Then `O=C(COc1ccc(Cl)cc1Cl)N1CCCN(C(=O)COc2ccc(Cl)cc2Cl)CC1`, with 1480 nM.
Consider `Clc1ccccc1C(c1ccccc1)(c1ccccc1)n1ccnc1`, for which the EC50 is 133 nM.
Then `COc1cccc(/C=N/NC(=O)C(=O)Nc2ccccc2OC(F)(F)C(F)F)c1O`, with 1020 nM; and `CCOC(=O)N1CCN(Cc2cc(Cl)c3cccnc3c2O)CC1`, with 1910 nM.
Then `C/C(=N\NC(=O)c1cc2ccccc2cc1O)c1ccccn1`, with 1450 nM.
Then `COc1cccc(C(=O)Oc2c(CN3CCOCC3)cc(Cl)c3cccnc23)c1`, with 1950 nM; and `NC(=NCCCCCCN=C(N)/N=C(\N)Nc1ccc(Cl)cc1)/N=C(\N)Nc1ccc(Cl)cc1`, with 741 nM and 1510 nM and 2130 nM; and `CCCCC(=O)NC(c1ccccc1)c1ccc2cccnc2c1O` (centres undefined), with 752 nM.
For the compound `COc1cc(/C=C(\C#N)c2nc3ccccc3[nH]2)ccc1O`, the concentration for a half-maximal effect (EC50) was 1490 nM.
`CCn1nnnc1NC(=O)c1cc(Cl)c(OC)c(Cl)c1`: the 50% effective concentration (EC50) was 5450 nM.

Source of the values: PubChem BioAssay AID2423 (Broad Institute, 2010).
